Test results taken from article PMC7377962 (Nature chemical biology, 2020).

Target: T1, Mur23 (Streptomyces sp. NRRL 30471, UniProt F2WUD5)
T1 sequence (F2WUD5 1-388): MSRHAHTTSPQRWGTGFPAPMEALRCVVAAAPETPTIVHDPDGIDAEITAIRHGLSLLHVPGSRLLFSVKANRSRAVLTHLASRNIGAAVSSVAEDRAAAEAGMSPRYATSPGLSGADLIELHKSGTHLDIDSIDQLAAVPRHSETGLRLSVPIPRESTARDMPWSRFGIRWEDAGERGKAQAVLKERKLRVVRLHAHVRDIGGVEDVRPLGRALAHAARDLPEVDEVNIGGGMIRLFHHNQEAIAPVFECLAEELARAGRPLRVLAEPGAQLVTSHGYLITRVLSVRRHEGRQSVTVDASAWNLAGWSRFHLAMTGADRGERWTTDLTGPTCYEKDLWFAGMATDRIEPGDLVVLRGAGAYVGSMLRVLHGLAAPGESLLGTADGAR
Experiment: co-purification, UV/Vis spectrum
Type: binding
Conditions: bound as purified

## Cc1ncc(COP(=O)(O)O)c(C=O)c1O [PLP, pyridoxal-5′-phosphate]
  co-purification, UV/Vis spectrum: Mur23 copurified with PLP as evident by the yellow color and the characteristic UV/Vis spectrum
